Laboratory results taken from the supplement of paper PMC10307832.

How the values were obtained:
Assay in all cases: relative viability (nuclei count vs DMSO), 5 days (fraction); higher = more cells survive
[1] = system: NCI-H3122
Summary of the method: (§1)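 Relative viability equals treated-well nuclei counts divided by vehicle-well nuclei counts. Counts came from 4× images of lung cancer cell lines grown in 1536-well plates for 5 days after pin-tool dosing on the day after seeding. Dosing used one drug alone or a fixed anchor-drug dose plus five library-drug doses (not always all listed) in √10 steps, and values are medians of duplicate plates.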

[2] = system: LK-2
Summary of the method: as §1

[3] = system: HCC-366
Summary of the method: as §1

[4] = system: RERF-LC-KJ
Summary of the method: as §1

[5] = system: LC-2-ad
Summary of the method: as §1

[6] = system: SK-MES-1
Summary of the method: as §1

[7] = system: HCC-78
Summary of the method: as §1

[8] = system: NCI-H838
Summary of the method: as §1

[9] = system: NCI-H2405
Summary of the method: as §1

[10] = system: NCI-H2228
Summary of the method: as §1

[11] = system: HOP-62
Summary of the method: as §1

[12] = system: NCI-H1355
Summary of the method: as §1

[13] = system: NCI-H596
Summary of the method: as §1

[14] = system: NCI-H1734
Summary of the method: as §1

[15] = system: NCI-H2085
Summary of the method: as §1

[16] = system: SW 1573
Summary of the method: as §1

[17] = system: CAL-12T
Summary of the method: as §1

[18] = system: NCI-H2009
Summary of the method: as §1

[19] = system: NCI-H1993
Summary of the method: as §1

[20] = system: PC-14
Summary of the method: as §1

[21] = system: NCI-H2347
Summary of the method: as §1

[22] = system: EMC-BAC-2
Summary of the method: as §1

[23] = system: ChaGo-K-1
Summary of the method: as §1

Structure (SMILES): O=C(O)CCCCC(CCSCc1ccccc1)SCc1ccccc1 (centres undefined) [CPI-613] + COc1cc2c(Oc3ccc(NC(=O)C4(C(=O)Nc5ccc(F)cc5)CC4)cc3F)ccnc2cc1OCCCN1CCOCC1 [Foretinib] (partner 0.25 µM)
- relative viability ([1]; first compound 5 µM): 0.989
- relative viability ([1]; first compound 15.81 µM): 0.895
- relative viability ([1]; first compound 50 µM): 0.971
- relative viability ([1]; first compound 158.11 µM): 0.858
- relative viability ([1]; first compound 500 µM): 0.0742
- relative viability ([2]; first compound 5 µM): 1.45
- relative viability ([2]; first compound 15.81 µM): 1.18
- relative viability ([2]; first compound 50 µM): 1.16
- relative viability ([2]; first compound 158.11 µM): 1.06
- relative viability ([2]; first compound 500 µM): 0.126
- relative viability ([3]; first compound 5 µM): 0.963
- relative viability ([3]; first compound 15.81 µM): 0.962
- relative viability ([3]; first compound 50 µM): 0.989
- relative viability ([3]; first compound 158.11 µM): 0.322
- relative viability ([3]; first compound 500 µM): 0.0079
- relative viability ([4]; first compound 5 µM): 0.878
- relative viability ([4]; first compound 15.81 µM): 0.763
- relative viability ([4]; first compound 50 µM): 0.889
- relative viability ([4]; first compound 158.11 µM): 0.882
- relative viability ([4]; first compound 500 µM): 0.851
- relative viability ([5]; first compound 5 µM): 0.842
- relative viability ([5]; first compound 15.81 µM): 0.796
- relative viability ([5]; first compound 50 µM): 0.957
- relative viability ([5]; first compound 158.11 µM): 0.434
- relative viability ([5]; first compound 500 µM): 0.0582
- relative viability ([6]; first compound 5 µM): 0.999
- relative viability ([6]; first compound 15.81 µM): 0.901
- relative viability ([6]; first compound 50 µM): 0.843
- relative viability ([6]; first compound 158.11 µM): 0.831
- relative viability ([6]; first compound 500 µM): 0.84
- relative viability ([7]; first compound 5 µM): 0.497
- relative viability ([7]; first compound 15.81 µM): 0.554
- relative viability ([7]; first compound 50 µM): 0.545
- relative viability ([7]; first compound 158.11 µM): 0.52
- relative viability ([7]; first compound 500 µM): 0.473
- relative viability ([8]; first compound 5 µM): 0.98
- relative viability ([8]; first compound 15.81 µM): 1.02
- relative viability ([8]; first compound 50 µM): 1.03
- relative viability ([8]; first compound 158.11 µM): 0.657
- relative viability ([8]; first compound 500 µM): 0.116
- relative viability ([9]; first compound 5 µM): 1.08
- relative viability ([9]; first compound 15.81 µM): 1.03
- relative viability ([9]; first compound 50 µM): 0.995
- relative viability ([9]; first compound 158.11 µM): 0.93
- relative viability ([9]; first compound 500 µM): 0.876
- relative viability ([10]; first compound 5 µM): 0.719
- relative viability ([10]; first compound 15.81 µM): 0.948
- relative viability ([10]; first compound 50 µM): 0.78
- relative viability ([10]; first compound 158.11 µM): 0.332
- relative viability ([10]; first compound 500 µM): 0.088
- relative viability ([11]; first compound 5 µM): 1.06
- relative viability ([11]; first compound 15.81 µM): 1.04
- relative viability ([11]; first compound 50 µM): 1.11
- relative viability ([11]; first compound 158.11 µM): 0.39
- relative viability ([11]; first compound 500 µM): 0.231
- relative viability ([12]; first compound 5 µM): 0.941
- relative viability ([12]; first compound 15.81 µM): 0.94
- relative viability ([12]; first compound 50 µM): 0.998
- relative viability ([12]; first compound 158.11 µM): 0.455
- relative viability ([12]; first compound 500 µM): 0.137
- relative viability ([13]; first compound 5 µM): 0.862
- relative viability ([13]; first compound 15.81 µM): 0.969
- relative viability ([13]; first compound 50 µM): 0.813
- relative viability ([13]; first compound 158.11 µM): 0.592
- relative viability ([13]; first compound 500 µM): 0.0375
- relative viability ([14]; first compound 5 µM): 0.792
- relative viability ([14]; first compound 15.81 µM): 0.984
- relative viability ([14]; first compound 50 µM): 0.859
- relative viability ([14]; first compound 158.11 µM): 0.332
- relative viability ([14]; first compound 500 µM): 0.104
- relative viability ([15]; first compound 5 µM): 0.767
- relative viability ([15]; first compound 15.81 µM): 0.927
- relative viability ([15]; first compound 50 µM): 0.933
- relative viability ([15]; first compound 158.11 µM): 0.286
- relative viability ([15]; first compound 500 µM): 0.0979
- relative viability ([16]; first compound 5 µM): 0.943
- relative viability ([16]; first compound 15.81 µM): 0.807
- relative viability ([16]; first compound 50 µM): 0.844
- relative viability ([16]; first compound 158.11 µM): 0.88
- relative viability ([16]; first compound 500 µM): 0.871
- relative viability ([17]; first compound 5 µM): 0.981
- relative viability ([17]; first compound 15.81 µM): 0.89
- relative viability ([17]; first compound 50 µM): 1.11
- relative viability ([17]; first compound 158.11 µM): 0.142
- relative viability ([17]; first compound 500 µM): 0.015
- relative viability ([18]; first compound 5 µM): 1.25
- relative viability ([18]; first compound 15.81 µM): 1.16
- relative viability ([18]; first compound 50 µM): 1.12
- relative viability ([18]; first compound 158.11 µM): 0.221
- relative viability ([18]; first compound 500 µM): 0.019
- relative viability ([19]; first compound 5 µM): 0.829
- relative viability ([19]; first compound 15.81 µM): 0.78
- relative viability ([19]; first compound 50 µM): 0.961
- relative viability ([19]; first compound 158.11 µM): 0.509
- relative viability ([19]; first compound 500 µM): 0.452
- relative viability ([20]; first compound 5 µM): 0.953
- relative viability ([20]; first compound 15.81 µM): 0.862
- relative viability ([20]; first compound 50 µM): 0.852
- relative viability ([20]; first compound 158.11 µM): 0.845
- relative viability ([20]; first compound 500 µM): 0.991
- relative viability ([21]; first compound 5 µM): 0.7
- relative viability ([21]; first compound 15.81 µM): 1.05
- relative viability ([21]; first compound 50 µM): 1.09
- relative viability ([21]; first compound 500 µM): 1.05
- relative viability ([22]; first compound 5 µM): 1.01
- relative viability ([22]; first compound 15.81 µM): 0.993
- relative viability ([22]; first compound 50 µM): 0.967
- relative viability ([22]; first compound 158.11 µM): 0.367
- relative viability ([22]; first compound 500 µM): 0.0284
- relative viability ([23]; first compound 5 µM): 0.818
- relative viability ([23]; first compound 15.81 µM): 0.901
- relative viability ([23]; first compound 50 µM): 0.929
- relative viability ([23]; first compound 158.11 µM): 0.245
- relative viability ([23]; first compound 500 µM): 0.105
